From US10125134B2 (Mirati Therapeutics, Inc., priority 2016, dated 2018)
Where two headings read alike, the source gives them in different places.

Legend:
[1] = molecular target: KRas G12C (Homo sapiens, UniProt P01116, C118S/C51S/C80L/G12C); experiment: KRas G12C Modification Assay (LCMS detection of covalent adduct); format: binding; conditions: normalized percent of control; tested at 5 μM concentration for 3 hours
Experimental: A 10 μL aliquot of each protein solution was then transferred to a 384 well microtiter plate. Initial compound stocks were generated at fifty times their desired final assay concentration in DMSO.
Exemplary compounds of Formula (I) were diluted 25-fold into K-Ras Assay Buffer to a final of two times their final concentration. A 10 μL aliquot of each diluted compound solution was then added to each of the protein solutions in the microtiter plate to initiate reaction. […] At each time point, the reactions were quenched with 20 μL of a 25 mM acetic acid solution. […] Once all reactions were quenched, the plates were heat sealed and the samples were injected into a LC/MS system for data acquisition.
Samples were injected in their liquid phase onto a C-3 reverse phase column to remove assay buffer and prepare the samples for mass spectrometer. The proteins were eluted from the column using an acetonitrile gradient and fed directly into the mass analyzer. Initial raw data analysis took place in Agilent MassHunter software immediately post data acquisition.
Raw data analysis of the intact protein was exclusively a deconvolution of the multiple charge states of each protein in solution using a maximum entropy deconvolution provided in Mass Hunter. To minimize complexity, only the data over limited mass ranges were considered for analysis, with a minimum of one Dalton mass step intervals. The heights of all masses identified during raw data analysis were exported to be further analyzed in Spotfire® data analysis software.
Final data analysis was a multistep process in the Spotfire® data analysis software package. Briefly, each protein mass was calculated as a percent of the total signal of that sample, that percentage was then normalized to the percentage of signal of the protein in the absence of reactive compounds. Those normalized signals were reported as normalized percent of control (POC). […] Key: “A”≤25% POC; “B”>25% POC−≤50% POC; “C”>50% POC and ND=not determined.

[2] = system: NCI-H358 cells (express KRas G12C), Phospho-ERK; experiment: Cellular inhibition of KRas G12C: Phospho-ERK in NCI-H358 cells; format: cell-based; conditions: Homo sapiens, pERK(Thr202/Tyr204) normalized with GAPDH, NCI-H358 cells, 3 hours, read-out: IC50
Experimental: The cellular inhibition of KRAs G12C by exemplary compounds of the present invention was determined by measuring the amount of a downstream marker of KRas activity, phosphorylated ERK (“Phospho-ERK”).
Cells were plated in poly-D-Lysine coated 96-well plates at a concentration of 50,000 cells/well and allowed to attach for 8-12 hours. Diluted compounds were then added at a final concentration of 0.5% DMSO. After 3 hours, the medium was removed, 150 μL of 4% formaldehyde was added and the plates were incubated for 20 minutes. The plates were washed with PBS, and permeabilized using 150 μL of ice cold 100% methanol for 10 minutes. Non-specific antibody binding to the plates was blocked using 100 μL Licor Blocking Buffer (Li-Cor Biotechnology, Lincoln Nebr.) for 1 hour at room temperature. Positive control samples and samples lacking cells were parallel processed with test samples as standards.
The amount Phospho-ERK was determined using an antibody specific for the phosphorylated form of ERK and compared to the amount of GAPDH. […] The plates were incubated for 2 hours at room temperature. The plates were washed with PBS+0.05% Tween 20.
Secondary antibodies used to visualize primary antibodies were added as follows: Anti-rabbit-680 diluted 1:1000 and Anti-mouse-800 diluted 1:1000 in Licor Block+0.05% Tween 20 and incubated for 1 hour at room temperature. The plates were washed with PBS+0.05% Tween 20. A 100 μL aliquot of PBS was added to each well and the plates were read on a LICOR AERIUS plate reader.
The pERK(Thr202/Tyr204) signal was normalized with the GAPDH signal and percent of DMSO control values were calculated. IC50 values were generated using a 4 parameter fit of the dose response curve. Key: “A”≥0.0001−≤1 μM; and “B”>1 μM.

| SMILES | POC [1] | IC50 ([2]; NCI-H358, 3 h) [nM] | IC50 [2] [nM] |
| --- | --- | --- | --- |
| C=CC(=O)N1CCN(c2ncnc3c2CCN(c2cc(O)ccc2F)C3)CC1 [Example 5, 1-(4-(7-(2-fluoro-5-hydroxyphenyl)-5,6,7,8-tetrahydropyrido[3,4-d]pyrimidin-4-yl)piperazin-1-yl)prop-2-en-1-one] | A (“A”≤25% POC) | > 1000 | – |
| C=CC(=O)N1CCN(c2ncnc3c2CC(C)N(c2cc(O)cc4ccccc24)C3)CC1 (centres unmarked) [Example 6, 1-(4-(7-(3-hydroxynaphthalen-1-yl)-6-methyl-5,6,7,8-tetrahydropyrido[3,4-d]pyrimidin-4-yl)piperazin-1-yl)prop-2-en-1-one] | B (“B”>25% POC−≤50% POC) | – | > 1000 |
| C=CC(=O)N1CCN(c2ncnc3c2CCN(c2c(C)ccc4[nH]ncc24)C3)CC1 [Example 7, 1-(4-(7-(5-methyl-1H-indazol-4-yl)-5,6,7,8-tetrahydropyrido[3,4-d]pyrimidin-4-yl)piperazin-1-yl)prop-2-en-1-one] | A (“A”≤25% POC) | > 1000 | – |
| C=CC(=O)N1CCN(c2nc(O[C@@H](C)CN(C)C)nc3c2CCN(c2cc(O)cc4ccccc24)C3)CC1 [Example 8, (S)-1-(4-(2-((1-(dimethylamino)propan-2-yl)oxy)-7-(3-hydroxynaphthalen-1-yl)-5,6,7,8-tetrahydropyrido[3,4-d]pyrimidin-4-yl)piperazin-1-yl)prop-2-en-1-one] | B (“B”>25% POC−≤50% POC) | > 1000 | – |
| C=CC(=O)N1CCN(c2nc(OCCN(C)C)nc3c2CCN(c2cc(O)cc4ccccc24)C3)CC1 [Example 9, 1-(4-(2-(2-(dimethylamino)ethoxy)-7-(3-hydroxynaphthalen-1-yl)-5,6,7,8-tetrahydropyrido[3,4-d]pyrimidin-4-yl)piperazin-1-yl)prop-2-en-1-one] | C (“C”>50% POC) | > 1000 | – |
| C=CC(=O)N1CCN(c2nc(OCCCN(C)C)nc3c2CCN(c2cc(O)cc4ccccc24)C3)CC1 [Example 10, 1-(4-(2-(3-(dimethylamino)propoxy)-7-(3-hydroxynaphthalen-1-yl)-5,6,7,8-tetrahydropyrido[3,4-d]pyrimidin-4-yl)piperazin-1-yl)prop-2-en-1-one] | C (“C”>50% POC) | > 1000 | – |
| C=CC(=O)N1CCN(c2nc(OC(C)CN(C)C)nc3c2CCN(c2cc(O)cc4ccccc24)C3)CC1 (centres unmarked) [Example 11, 1-(4-(2-((1-(dimethylamino)propan-2-yl)oxy)-7-(3-hydroxynaphthalen-1-yl)-5,6,7,8-tetrahydropyrido[3,4-d]pyrimidin-4-yl)piperazin-1-yl)prop-2-en-1-one] | C (“C”>50% POC) | 0.1 to 1000 | – |
| C=CC(=O)N1CCN(c2nc(N3CCN(C)CC3)nc3c2CCN(c2cc(O)cc4ccccc24)C3)CC1 [Example 12, 1-(4-(7-(3-hydroxynaphthalen-1-yl)-2-(4-methylpiperazin-1-yl)-5,6,7,8-tetrahydropyrido[3,4-d]pyrimidin-4-yl)piperazin-1-yl)prop-2-en-1-one] | C (“C”>50% POC) | > 1000 | – |

Now from value to molecule, other results behind:

| POC [1] | SMILES | IC50 ([2]; NCI-H358, 3 h) [nM] | IC50 [2] [nM] |
| --- | --- | --- | --- |
| C (“C”>50% POC) | C=CC(=O)N1CCN(c2nc(N3CCC(N(C)C)C3)nc3c2CCN(c2cc(O)cc4ccccc24)C3)CC1 (centres unmarked) [Example 13, 1-(4-(2-(3-(dimethylamino)pyrrolidin-1-yl)-7-(3-hydroxynaphthalen-1-yl)-5,6,7,8-tetrahydropyrido[3,4-d]pyrimidin-4-yl)piperazin-1-yl)prop-2-en-1-one] | > 1000 | – |
| C (“C”>50% POC) | C=CC(=O)N1CCN(c2nc(OCCN(C)C)nc3c2CCN(c2cc(O)cc4ccccc24)C3)C[C@@H]1C [Example 14] | > 1000 | – |
| C (“C”>50% POC) | C=CC(=O)N1CCN(c2nc(OCCN(C)C)nc3c2CCN(c2cc(O)cc4ccccc24)C3)C[C@H]1C [Example 15, (R)-1-(4-(2-(2-(dimethylamino)ethoxy)-7-(3-hydroxynaphthalen-1-yl)-5,6,7,8-tetrahydropyrido[3,4-d]pyrimidin-4-yl)-2-methylpiperazin-1-yl)prop-2-en-1-one] | > 1000 | – |
| C (“C”>50% POC) | C=CC(=O)N1CC2(C1)CN(c1nc(OCCN(C)C)nc3c1CCN(c1cc(O)cc4ccccc14)C3)C2 [Example 16, 1-(6-(2-(2-(dimethylamino)ethoxy)-7-(3-hydroxynaphthalen-1-yl)-5,6,7,8-tetrahydropyrido[3,4-d]pyrimidin-4-yl)-2,6-diazaspiro[3.3]heptan-2-yl)prop-2-en-1-one] | > 1000 | – |
| B (“B”>25% POC−≤50% POC) | C=CC(=O)N1CCN(c2nc(N3CCC(N(C)C)CC3)nc3c2CCN(c2cc(O)cc4ccccc24)C3)CC1 [Example 17, 1-(4-(2-(4-(dimethylamino)piperidin-1-yl)-7-(3-hydroxynaphthalen-1-yl)-5,6,7,8-tetrahydropyrido[3,4-d]pyrimidin-4-yl)piperazin-1-yl)prop-2-en-1-one] | > 1000 | – |
| C (“C”>50% POC) | C=CC(=O)N1CC2(C1)CN(c1nc(OC(C)CN(C)C)nc3c1CCN(c1cc(O)cc4ccccc14)C3)C2 (centres unmarked) [Example 18, 1-(6-(2-((1-(dimethylamino)propan-2-yl)oxy)-7-(3-hydroxynaphthalen-1-yl)-5,6,7,8-tetrahydropyrido[3,4-d]pyrimidin-4-yl)-2,6-diazaspiro[3.3]heptan-2-yl)prop-2-en-1-one] | – | > 1000 |
| C (“C”>50% POC) | C=CC(=O)N1CCN(c2nc(O[C@H](C)CN(C)C)nc3c2CCN(c2cc(O)cc4ccccc24)C3)CC1 [Example 19, (R)-1-(4-(2-((1-(dimethylamino)propan-2-yl)oxy)-7-(3-hydroxynaphthalen-1-yl)-5,6,7,8-tetrahydropyrido[3,4-d]pyrimidin-4-yl)piperazin-1-yl)prop-2-en-1-one] | 0.1 to 1000 | – |
| C (“C”>50% POC) | C=CC(=O)N1CC2(C1)CN(c1nc(OCCCN(C)C)nc3c1CCN(c1cc(O)cc4ccccc14)C3)C2 [Example 20, 1-(6-(2-(3-(dimethylamino)propoxy)-7-(3-hydroxynaphthalen-1-yl)-5,6,7,8-tetrahydropyrido[3,4-d]pyrimidin-4-yl)-2,6-diazaspiro[3.3]heptan-2-yl)prop-2-en-1-one] | > 1000 | – |
| C (“C”>50% POC) | C=CC(=O)N1CCN(c2nc(OC(C)CCN(C)C)nc3c2CCN(c2cc(O)cc4ccccc24)C3)CC1 (centres unmarked) [Example 21, 1-(4-(2-((4-(dimethylamino)butan-2-yl)oxy)-7-(3-hydroxynaphthalen-1-yl)-5,6,7,8-tetrahydropyrido[3,4-d]pyrimidin-4-yl)piperazin-1-yl)prop-2-en-1-one] | 0.1 to 1000 | – |
| C (“C”>50% POC) | C=CC(=O)N1CCN(c2nc(OC3CCN(C)CC3)nc3c2CCN(c2cc(O)cc4ccccc24)C3)CC1 [Example 22, 1-(4-(7-(3-hydroxynaphthalen-1-yl)-2-((1-methylpiperidin-4-yl)oxy)-5,6,7,8-tetrahydropyrido[3,4-d]pyrimidin-4-yl)piperazin-1-yl)prop-2-en-1-one] | > 1000 | – |
| C (“C”>50% POC) | C=CC(=O)N1CCN(c2nc(OC3CCN(C)C3)nc3c2CCN(c2cc(O)cc4ccccc24)C3)CC1 (centres unmarked) [Example 23, 1-(4-(7-(3-hydroxynaphthalen-1-yl)-2-((1-methylpyrrolidin-3-yl)oxy)-5,6,7,8-tetrahydropyrido[3,4-d]pyrimidin-4-yl)piperazin-1-yl)prop-2-en-1-one] | > 1000 | – |
